# Tested on: Rhipicephalus sanguineus
# Test: Rhipicephalus sanguineus in vitro contact test with adult brown dog ticks
# Format: in vivo
# Details: application rate 5 μg/cm^2 (500 g/ha); after 48 h; ticks dead or moribund
# In short: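 Test tubes (25 ml) were coated by dissolving active ingredient in acetone p.a., diluting to the required concentration, and spreading 250 μl over the inner walls and base on an orbital shaker at 30 rpm for 2 h. Once dry, 5-10 adult Rhipicephalus sanguineus were added, and tubes were capped with perforated lids and kept horizontal in darkness at room temperature. At 48 h, ticks were knocked down and heated at 45-50° C. for up to 5 min. Those unable to climb away were counted dead or moribund, and efficacy ran from 0% to 100%.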
row,SMILES,efficacy
1,Cn1nc(C(F)(F)C(F)(F)F)c(C(F)(F)F)c1-n1cc(-c2cccc(NC(=O)c3cccs3)c2)cn1 [Example 1-017],100%
2,COc1cccc(C(=O)Nc2cc(-c3cnn(-c4c(C(F)(F)F)c(C(F)(F)C(F)(F)F)nn4C)c3)ccc2F)c1 [Example 1-042],100%

# Tested on: Boophilus microplus Parkhurst strain, SP-resistant
# Test: Boophilus microplus dip test
# Format: in vivo
# Details: application rate 100 ppm, assessed after 7 days
# Method: Boophilus microplus—Dip Test
# Test animals: cattle ticks (Boophilus microplus) Parkhurst strain, SP-resistant
# (§1) Solvent: dimethyl sulphoxide
# 10 mg of active ingredient are dissolved in 0.5 ml of dimethyl sulphoxide. For the purpose of producing a suitable formulation, the active ingredient solution is diluted with water to the concentration desired in each case.
# This active ingredient formulation is pipetted into tubes. 8-10 adult engorged female cattle ticks (Boophilus microplus) are transferred into a further tube with holes. The tube is immersed into the active ingredient formulation, and all the ticks are completely wetted. After the liquid has run out, the ticks are transferred on filter discs into plastic dishes and stored in a climate-controlled room.
# Efficacy is assessed after 7 days by laying of fertile eggs. Eggs which are not visibly fertile are stored in a climate-controlled cabinet until the larvae hatch after about 42 days. An efficacy of 100% means that none of the ticks has laid any fertile eggs; 0% means that all the eggs are fertile.
row,SMILES,efficacy (laying of fertile eggs)
1,Cc1cccc(C(=O)Nc2cc(-c3cnn(-c4c(C(F)(F)F)c(C(F)(F)C(F)(F)F)nn4C)c3)ccc2F)c1C [Example 1-080],100%
2,COc1cccc(C(=O)Nc2cc(-c3cnn(-c4c(C(F)(F)F)c(C(F)(F)C(F)(F)F)nn4C)c3)ccc2F)c1 [Example 1-042],90%

# Tested on: Boophilus microplus
# Test: Boophilus microplus injection test
# Format: in vivo
# Details: application rate 20 μg/animal; injection into abdomen; assessed after 7 days
# In short: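 Engorged adult female ticks, five per dose, were injected in the abdomen with 1 μl of active ingredient diluted in dimethyl sulphoxide. Animals were kept in dishes under climate control, and egg fertility was assessed after 7 days.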
row,SMILES,efficacy (laying of fertile eggs)
1,Cn1nc(C(F)(F)C(F)(F)F)c(C(F)(F)F)c1-n1cc(-c2cccc(NC(=O)c3cccs3)c2)cn1 [Example 1-017],100%
2,Cn1cc(C(=O)Nc2cccc(-c3cnn(-c4c(C(F)(F)F)c(C(F)(F)C(F)(F)F)nn4C)c3)c2)cn1 [Example 1-019],100%
3,Cc1cccc(C(=O)Nc2cc(-c3cnn(-c4c(C(F)(F)F)c(C(F)(F)C(F)(F)F)nn4C)c3)ccc2F)c1C [Example 1-080],100%
4,COc1cccc(C(=O)Nc2cc(-c3cnn(-c4c(C(F)(F)F)c(C(F)(F)C(F)(F)F)nn4C)c3)ccc2F)c1 [Example 1-042],100%

# Tested on: Ctenocephalides felis
# Test: Ctenocephalides felis oral test
# Format: in vivo
# Details: application rate 100 ppm in citrated cattle blood; after 2 days
# In short: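 About 20 unfed adult cat fleas fed through a parafilm membrane on citrated cattle blood containing compound, dosed from a DMSO stock. Kill in % scored after 2 days; 100% means all fleas dead.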
row,SMILES,efficacy (kill in %)
1,Cn1nc(C(F)(F)C(F)(F)F)c(C(F)(F)F)c1-n1cc(-c2cccc(NC(=O)c3cccs3)c2)cn1 [Example 1-017],100%
2,Cn1cc(C(=O)Nc2cccc(-c3cnn(-c4c(C(F)(F)F)c(C(F)(F)C(F)(F)F)nn4C)c3)c2)cn1 [Example 1-019],100%
3,Cc1cccc(C(=O)Nc2cc(-c3cnn(-c4c(C(F)(F)F)c(C(F)(F)C(F)(F)F)nn4C)c3)ccc2F)c1C [Example 1-080],95%
4,COc1cccc(C(=O)Nc2cc(-c3cnn(-c4c(C(F)(F)F)c(C(F)(F)C(F)(F)F)nn4C)c3)ccc2F)c1 [Example 1-042],100%

# Tested on: Lucilia cuprina
# Test: Lucilia cuprina test
# Format: in vivo
# Details: application rate 100 ppm; L1 larvae; after 2 days
# In short: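 About 20 L1 larvae placed in vessels with minced horsemeat treated with compound (DMSO concentrate diluted in water) at the desired concentration. Kill (%) scored after 2 days; 100% means all larvae dead, 0% none.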
row,SMILES,efficacy (kill in %)
1,Cn1nc(C(F)(F)C(F)(F)F)c(C(F)(F)F)c1-n1cc(-c2cccc(NC(=O)c3cccs3)c2)cn1 [Example 1-017],100%
2,Cn1cc(C(=O)Nc2cccc(-c3cnn(-c4c(C(F)(F)F)c(C(F)(F)C(F)(F)F)nn4C)c3)c2)cn1 [Example 1-019],100%
3,COc1cccc(C(=O)Nc2cc(-c3cnn(-c4c(C(F)(F)F)c(C(F)(F)C(F)(F)F)nn4C)c3)ccc2F)c1 [Example 1-042],100%

# Tested on: Musca domestica
# Test: Musca domestica test
# Format: in vivo
# Details: application rate 100 ppm; adult houseflies; after 2 days
# Method: as §1
# To produce an appropriate active ingredient formulation, 10 mg of active ingredient are mixed with 0.5 ml of dimethyl sulphoxide, and the concentrate is diluted with water to the desired concentration.
# Vessels containing a sponge treated with sugar solution and the active ingredient formulation of the desired concentration are populated with 10 adult houseflies (Musca domestica).
# After 2 days, the kill in % is determined. 100% means that all of the flies have been killed; 0% means that none of the flies have been killed.
row,SMILES,efficacy (kill in %)
1,Cn1cc(C(=O)Nc2cccc(-c3cnn(-c4c(C(F)(F)F)c(C(F)(F)C(F)(F)F)nn4C)c3)c2)cn1 [Example 1-019],100%

# Tested on: Myzus persicae
# Test: Myzus persicae spray test
# Format: in vivo
# Details: application rate 100 g/ha; after 6 days
# Method: Myzus persicae—Spray Test
# To produce an appropriate active ingredient formulation, 1 part by weight of active ingredient is dissolved using the specified parts by weight of solvent and made up with water containing an emulsifier concentration of 1000 ppm until the desired concentration is attained. To produce further test concentrations, the preparation is diluted with emulsifier-containing water.
# Discs of Chinese cabbage leaves (Brassica pekinensis) infested by all stages of the green peach aphid (Myzus persicae) are sprayed with an active ingredient formulation of the desired concentration.
# After 6 days, efficacy in % is determined. 100% means that all the aphids have been killed; 0% means that none of the aphids have been killed.
row,SMILES,efficacy
1,Cn1nc(C(F)(F)C(F)(F)F)c(C(F)(F)F)c1-n1cc(-c2cccc(NC(=O)c3cccs3)c2)cn1 [Example 1-017],90%
2,Cn1cc(C(=O)Nc2cccc(-c3cnn(-c4c(C(F)(F)F)c(C(F)(F)C(F)(F)F)nn4C)c3)c2)cn1 [Example 1-019],90%

# Tested on: Phaedon cochleariae
# Test: Phaedon cochleariae spray test
# Format: in vivo
# Details: application rate 100 g/ha; larvae; after 7 days
# In short: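 Chinese cabbage leaf discs were sprayed with the compound formulated in water containing 1000 ppm emulsifier. After drying, they were infested with mustard beetle larvae. Efficacy was scored as % larvae killed after 7 days (100% = all dead, 0% = none).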
row,SMILES,efficacy
1,Cn1nc(C(F)(F)C(F)(F)F)c(C(F)(F)F)c1-n1cc(-c2cccc(NC(=O)c3cccs3)c2)cn1 [Example 1-017],100%
2,Cn1cc(C(=O)Nc2cccc(-c3cnn(-c4c(C(F)(F)F)c(C(F)(F)C(F)(F)F)nn4C)c3)c2)cn1 [Example 1-019],100%
3,COc1cccc(C(=O)Nc2cc(-c3cnn(-c4c(C(F)(F)F)c(C(F)(F)C(F)(F)F)nn4C)c3)ccc2F)c1 [Example 1-042],100%

# Tested on: Spodoptera frugiperda
# Test: Spodoptera frugiperda spray test
# Format: in vivo
# Details: application rate 100 g/ha; caterpillars; after 7 days
# In short: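 Maize leaf discs were sprayed with compound formulated in solvent plus water containing 1000 ppm emulsifier, dried, then infested with Spodoptera frugiperda caterpillars. Efficacy in % mortality was scored after 7 days (100% all killed, 0% none).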
row,SMILES,efficacy
1,Cn1nc(C(F)(F)C(F)(F)F)c(C(F)(F)F)c1-n1cc(-c2cccc(NC(=O)c3cccs3)c2)cn1 [Example 1-017],100%
2,Cn1cc(C(=O)Nc2cccc(-c3cnn(-c4c(C(F)(F)F)c(C(F)(F)C(F)(F)F)nn4C)c3)c2)cn1 [Example 1-019],100%

# Tested on: Tetranychus urticae
# Test: Tetranychus urticae spray test, OP-resistant
# Format: in vivo
# Details: application rate 100 g/ha; after 6 days
# In short: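 Bean leaf discs (Phaseolus vulgaris) carrying all stages of OP-resistant mites are sprayed with compound formulated in solvent and emulsifier-containing water. Efficacy (% mites killed) is scored after 6 days.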
row,SMILES,efficacy
1,Cn1nc(C(F)(F)C(F)(F)F)c(C(F)(F)F)c1-n1cc(-c2cccc(NC(=O)c3cccs3)c2)cn1 [Example 1-017],100%
2,Cn1cc(C(=O)Nc2cccc(-c3cnn(-c4c(C(F)(F)F)c(C(F)(F)C(F)(F)F)nn4C)c3)c2)cn1 [Example 1-019],100%
3,COc1cccc(C(=O)Nc2cc(-c3cnn(-c4c(C(F)(F)F)c(C(F)(F)C(F)(F)F)nn4C)c3)ccc2F)c1 [Example 1-042],100%

# From US10273226B2, “Pyrazolyl-heteroarylamides as pesticides” (Bayer Animal Health GmbH, priority 2014, dated 2019)
